Results reported in PMC12817894, “Two solutions for efficient light-harvesting in phototrophic Gemmatimonadota” (mSystems, 2025).

Target: T1, RC (reaction center) of the RC-dLH complex, L and M subunits (Gemmatimonas groenlandica, UniProt A0A6M4ILR2+A0A6M4IPC7)
T1 construct: gene HKW67_08800; native reaction center within the RC-dLH complex purified from Gem. groenlandica cells, DDM-solubilized; RC-U not detected; with Photosynthetic reaction center cytochrome c subunit; Photosynthetic reaction center H subunit, transmembrane part; Photosynthetic reaction center H subunit, cytoplasmic part; Reaction center subunit S
T1 sequence (A0A6M4IPC7 1-274): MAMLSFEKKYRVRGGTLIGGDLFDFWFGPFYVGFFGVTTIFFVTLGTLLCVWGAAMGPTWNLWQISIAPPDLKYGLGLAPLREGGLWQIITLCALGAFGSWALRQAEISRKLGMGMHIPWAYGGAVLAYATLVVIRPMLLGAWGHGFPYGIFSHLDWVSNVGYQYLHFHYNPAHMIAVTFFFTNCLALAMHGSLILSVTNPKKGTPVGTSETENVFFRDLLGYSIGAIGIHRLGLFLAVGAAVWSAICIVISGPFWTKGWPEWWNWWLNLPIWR
T1 sequence (A0A6M4ILR2 1-392): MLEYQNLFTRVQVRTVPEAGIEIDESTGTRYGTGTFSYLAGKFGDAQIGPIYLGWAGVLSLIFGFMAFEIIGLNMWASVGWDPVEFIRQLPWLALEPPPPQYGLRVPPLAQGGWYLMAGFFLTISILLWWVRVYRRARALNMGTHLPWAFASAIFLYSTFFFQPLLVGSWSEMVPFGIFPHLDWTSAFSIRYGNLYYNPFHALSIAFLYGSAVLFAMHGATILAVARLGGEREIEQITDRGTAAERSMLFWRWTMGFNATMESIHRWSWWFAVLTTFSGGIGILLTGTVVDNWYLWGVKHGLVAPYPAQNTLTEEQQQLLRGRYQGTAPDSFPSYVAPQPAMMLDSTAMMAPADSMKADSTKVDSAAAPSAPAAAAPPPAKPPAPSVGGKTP
Experiment: cryo-EM structure ([…] Å)
Assay type: binding
Conditions: modeled ligand; placement in RC L/M from known biology

## CC[C@H]1c2cc3[nH]c4c(c3C)C(=O)[C@H](C(=O)OC)c4c3nc(cc4[nH]c(cc(n2)[C@@H]1C)c(C(C)=O)c4C)[C@@H](C)[C@@H]3CCC(=O)OC/C=C(\C)CCC[C@H](C)CCC[C@H](C)CCCC(C)C [bacteriopheophytin]
  cryo-EM structure (2.3 Å): bacteriochlorophyll, bacteriopheophytin, gemmatoxanthin, dodecyl-maltoside, phosphoethanolamine, heme, water, cardiolipin, menaquinone, and spirilloxanthin
